Laboratory results from patent US5393869A, “Parathyroid hormone derivatives” (Takeda Chemical Industries, Ltd., priority 1990, dated 1995).

Molecular target: T1, PTH receptor (Mus musculus, UniProt P41593)
T1 construct: a mouse cranial bone-derived osteoblast-like cell strain, MC3T3-EI cells, cultivated on a 96-well multiplate; endogenous in cells; host or cells: MC3T3-E1 mouse osteoblast-like cells
T1 sequence (P41593 27-591): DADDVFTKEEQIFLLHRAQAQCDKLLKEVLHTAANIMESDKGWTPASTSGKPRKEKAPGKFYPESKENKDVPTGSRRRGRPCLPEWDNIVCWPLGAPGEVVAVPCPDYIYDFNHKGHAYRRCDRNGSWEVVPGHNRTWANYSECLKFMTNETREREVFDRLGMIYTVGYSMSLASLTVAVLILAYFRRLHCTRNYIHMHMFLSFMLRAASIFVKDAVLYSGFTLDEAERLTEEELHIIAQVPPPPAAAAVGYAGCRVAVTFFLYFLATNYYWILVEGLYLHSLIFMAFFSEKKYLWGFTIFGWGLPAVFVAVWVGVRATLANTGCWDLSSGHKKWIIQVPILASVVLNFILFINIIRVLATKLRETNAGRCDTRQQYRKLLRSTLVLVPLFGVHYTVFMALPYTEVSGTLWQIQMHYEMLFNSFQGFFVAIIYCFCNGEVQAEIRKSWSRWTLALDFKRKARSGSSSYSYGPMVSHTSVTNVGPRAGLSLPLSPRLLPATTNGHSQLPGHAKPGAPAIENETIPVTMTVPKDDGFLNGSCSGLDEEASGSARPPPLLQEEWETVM
Experiment: cAMP production by PTH (1-34) analogues in MC3T3-EI osteoblast-like cells
Type: cell-based
Conditions: cAMP production, 0.01-100 nM analogue, room temperature 30 minutes, hPTH(1-34) = 1.00
Description: The biological activity of the peptide analogues was evaluated by a modified version of the method reported by Shigeno et al. in The Journal of Biological Chemistry 263, 18369-18377 (1988). A culture solution (Hank's solution, containing 20 mM N-2-hydroxyethylpiperazine-N'-2-ethanesulfonic acid (HEPES), 0.1% bovine serum albumin and 0.5 mM isobutylmethyl-xanthine) containing 0.01, 0.1, 1, 10 or 100 nM analogue was added in an amount of 100 μto a mouse cranial bone-derived osteoblast-like cell strain, MC3T3-EI cells, cultivated on a 96-well multiplate (Nunclon, Nunc), followed by reaction at room temperature for 30 minutes. After addition of 100 μof 0.2N hydrochloric acid, the mixture was immersed in boiling water for 2.5 minutes, and cyclic adenosine monophosphate (cAMP) produced by a PTH receptor was extracted from the cells. The total cAMP in the culture solution and the cells was assayed using a commercial radioimmunoassay kit (cyclic AMP [^125 I] kit "Du Pont-Daiichi", Daiichi Kagaku Yakuhin).

SMILES | Biological Activity (Represented by Relative Activity to hPTH(1-34))
CC[C@H](C)[C@H](NC(=O)[C@H](CCC(=O)O)NC(=O)[C@H](CO)NC(=O)[C@@H](NC(=O)[C@@H](N)CO)C(C)C)C(=O)N[C@@H](CCC(N)=O)C(=O)N[C@@H](CC(C)C)C(=O)N[C@@H](CCSC)C(=O)N[C@@H](Cc1c[nH]cn1)C(=O)N[C@@H](CC(N)=O)C(=O)N[C@@H](CC(C)C)C(=O)NCC(=O)N[C@@H](CCCCN)C(=O)N[C@@H](Cc1c[nH]cn1)C(=O)N[C@@H](CC(C)C)C(=O)N[C@@H](CC(N)=O)C(=O)N[C@@H](CO)C(=O)N[C@@H](CCSC)C(=O)N[C@@H](CCC(=O)O)C(=O)N[C@@H](CCCNC(=N)N)C(=O)N[C@H](C(=O)N[C@@H](CCC(=O)O)C(=O)N[C@@H](Cc1c[nH]c2ccccc12)C(=O)N[C@@H](CC(C)C)C(=O)N[C@@H](Cc1c[nH]cn1)C(=O)N[C@@H](CCCCN)C(=O)N[C@@H](CCCCN)C(=O)N[C@@H](CC(C)C)C(=O)N[C@@H](CCC(N)=O)C(=O)N[C@@H](CC(=O)O)C(=O)N[C@H](C(=O)N[C@@H](Cc1c[nH]cn1)C(=O)N[C@@H](CC(N)=O)C(=O)N[C@@H](Cc1ccccc1)C(=O)O)C(C)C)C(C)C [[His^25] hPTH (1-34), (His^25)hPTH(1-34)] | 1.0
CC[C@H](C)[C@H](NC(=O)[C@H](CCC(=O)O)NC(=O)[C@H](CO)NC(=O)[C@@H](NC(=O)[C@@H](N)CO)C(C)C)C(=O)N[C@@H](CCC(N)=O)C(=O)N[C@@H](CC(C)C)C(=O)N[C@@H](CCSC)C(=O)N[C@@H](Cc1c[nH]cn1)C(=O)N[C@@H](CC(N)=O)C(=O)N[C@@H](CC(C)C)C(=O)NCC(=O)N[C@@H](CCCCN)C(=O)N[C@@H](Cc1c[nH]cn1)C(=O)N[C@@H](CC(C)C)C(=O)N[C@@H](CC(N)=O)C(=O)N[C@@H](CO)C(=O)N[C@@H](CCSC)C(=O)N[C@@H](CCC(=O)O)C(=O)N[C@@H](CCCNC(=N)N)C(=O)N[C@H](C(=O)N[C@@H](CCC(=O)O)C(=O)N[C@@H](Cc1c[nH]c2ccccc12)C(=O)N[C@@H](CC(C)C)C(=O)N[C@@H](CCCNC(=N)N)C(=O)N[C@@H](Cc1c[nH]cn1)C(=O)N[C@@H](CCCCN)C(=O)N[C@@H](CC(C)C)C(=O)N[C@@H](CCC(N)=O)C(=O)N[C@@H](CC(=O)O)C(=O)N[C@H](C(=O)N[C@@H](Cc1c[nH]cn1)C(=O)N[C@@H](CC(N)=O)C(=O)N[C@@H](Cc1ccccc1)C(N)=O)C(C)C)C(C)C [[His^26] hPTH (1-34)NH2, (His^26)hPTH(1-34(NH2] | 0.9
CC[C@H](C)[C@H](NC(=O)[C@H](CCC(=O)O)NC(=O)[C@H](CO)NC(=O)[C@@H](NC(=O)[C@@H](N)CO)C(C)C)C(=O)N[C@@H](CCC(N)=O)C(=O)N[C@@H](CC(C)C)C(=O)N[C@@H](CC(C)C)C(=O)N[C@@H](Cc1c[nH]cn1)C(=O)N[C@@H](CC(N)=O)C(=O)N[C@@H](CC(C)C)C(=O)NCC(=O)N[C@@H](CCCCN)C(=O)N[C@@H](Cc1c[nH]cn1)C(=O)N[C@@H](CC(C)C)C(=O)N[C@@H](CC(N)=O)C(=O)N[C@@H](CO)C(=O)N[C@@H](CCSC)C(=O)N[C@@H](CCC(=O)O)C(=O)N[C@@H](CCCNC(=N)N)C(=O)N[C@H](C(=O)N[C@@H](CCC(=O)O)C(=O)N[C@@H](Cc1c[nH]c2ccccc12)C(=O)N[C@@H](CC(C)C)C(=O)N[C@@H](CCCNC(=N)N)C(=O)N[C@@H](CCCCN)C(=O)N[C@@H](CCCCN)C(=O)N[C@@H](CC(C)C)C(=O)N[C@@H](CCC(N)=O)C(=O)N[C@@H](CC(=O)O)C(=O)N[C@H](C(=O)N[C@@H](Cc1c[nH]cn1)C(=O)N[C@@H](CC(N)=O)C(=O)N[C@@H](Cc1ccccc1)C(N)=O)C(C)C)C(C)C [[Leu^8] hPTH (1-34)NH2, (Leu^8)hPTH(1-34)NH2] | 0.5
CC[C@H](C)[C@H](NC(=O)[C@H](CCC(=O)O)NC(=O)[C@H](CO)NC(=O)[C@@H](NC(=O)[C@@H](N)CO)C(C)C)C(=O)N[C@@H](CCC(N)=O)C(=O)N[C@@H](CC(C)C)C(=O)N[C@@H](CCSC)C(=O)N[C@@H](Cc1c[nH]cn1)C(=O)N[C@@H](CC(N)=O)C(=O)N[C@@H](CC(C)C)C(=O)NCC(=O)N[C@@H](CCCCN)C(=O)N[C@@H](Cc1c[nH]cn1)C(=O)N[C@@H](CC(C)C)C(=O)N[C@@H](CC(N)=O)C(=O)N[C@@H](CO)C(=O)N[C@@H](CC(C)C)C(=O)N[C@@H](CCC(=O)O)C(=O)N[C@@H](CCCNC(=N)N)C(=O)N[C@H](C(=O)N[C@@H](CCC(=O)O)C(=O)N[C@@H](Cc1c[nH]c2ccccc12)C(=O)N[C@@H](CC(C)C)C(=O)N[C@@H](CCCNC(=N)N)C(=O)N[C@@H](CCCCN)C(=O)N[C@@H](CCCCN)C(=O)N[C@@H](CC(C)C)C(=O)N[C@@H](CCC(N)=O)C(=O)N[C@@H](CC(=O)O)C(=O)N[C@H](C(=O)N[C@@H](Cc1c[nH]cn1)C(=O)N[C@@H](CC(N)=O)C(=O)N[C@@H](Cc1ccccc1)C(=O)O)C(C)C)C(C)C [[Leu^18] hPTH (1-34), (Leu^18)hPTH(1-34)] | 0.4
CC[C@H](C)[C@H](NC(=O)[C@H](CCC(=O)O)NC(=O)[C@H](CO)NC(=O)[C@@H](NC(=O)[C@@H](N)CO)C(C)C)C(=O)N[C@@H](CCC(N)=O)C(=O)N[C@@H](CC(C)C)C(=O)N[C@@H](CCSC)C(=O)N[C@@H](Cc1c[nH]cn1)C(=O)N[C@@H](CC(N)=O)C(=O)N[C@@H](CC(C)C)C(=O)NCC(=O)N[C@@H](CCCCN)C(=O)N[C@@H](Cc1c[nH]cn1)C(=O)N[C@@H](CC(C)C)C(=O)N[C@@H](CC(N)=O)C(=O)N[C@@H](CO)C(=O)N[C@@H](CCSC)C(=O)N[C@@H](CCC(=O)O)C(=O)N[C@@H](CCCNC(=N)N)C(=O)N[C@H](C(=O)N[C@@H](CCC(=O)O)C(=O)N[C@@H](Cc1c[nH]c2ccccc12)C(=O)N[C@@H](CC(C)C)C(=O)N[C@@H](CCCNC(=N)N)C(=O)N[C@@H](CCCCN)C(=O)N[C@@H](CC(C)C)C(=O)N[C@@H](CC(C)C)C(=O)N[C@@H](CCC(N)=O)C(=O)N[C@@H](CC(=O)O)C(=O)N[C@H](C(=O)N[C@@H](Cc1c[nH]cn1)C(=O)N[C@@H](CC(N)=O)C(=O)N[C@@H](Cc1ccccc1)C(=O)O)C(C)C)C(C)C [[Leu^27] hPTH (1-34), (Leu^27)hPTH(1-34)] | 1.2
CC[C@H](C)[C@H](NC(=O)[C@H](CCC(=O)O)NC(=O)[C@H](CO)NC(=O)[C@@H](NC(=O)[C@@H](N)CO)C(C)C)C(=O)N[C@@H](CCC(N)=O)C(=O)N[C@@H](CC(C)C)C(=O)N[C@@H](CCSC)C(=O)N[C@@H](Cc1c[nH]cn1)C(=O)N[C@@H](CC(N)=O)C(=O)N[C@@H](CCCCN)C(=O)NCC(=O)N[C@@H](CCCCN)C(=O)N[C@@H](Cc1c[nH]cn1)C(=O)N[C@@H](CC(C)C)C(=O)N[C@@H](CC(N)=O)C(=O)N[C@@H](CO)C(=O)N[C@@H](CCSC)C(=O)N[C@@H](CCC(=O)O)C(=O)N[C@@H](CCCNC(=N)N)C(=O)N[C@H](C(=O)N[C@@H](CCC(=O)O)C(=O)N[C@@H](Cc1c[nH]c2ccccc12)C(=O)N[C@@H](CC(C)C)C(=O)N[C@@H](CCCNC(=N)N)C(=O)N[C@@H](CCCCN)C(=O)N[C@@H](CCCCN)C(=O)N[C@@H](CC(C)C)C(=O)N[C@@H](CCC(N)=O)C(=O)N[C@@H](CC(=O)O)C(=O)N[C@H](C(=O)N[C@@H](Cc1c[nH]cn1)C(=O)N[C@@H](CC(N)=O)C(=O)N[C@@H](Cc1ccccc1)C(N)=O)C(C)C)C(C)C [[Lys^11] hPTH (1-34)NH2, (Lys^11)hPTH(1-34)NH2] | 1.1
CC[C@H](C)[C@H](NC(=O)[C@H](CCC(=O)O)NC(=O)[C@H](CO)NC(=O)[C@@H](NC(=O)[C@@H](N)CO)C(C)C)C(=O)N[C@@H](CCC(N)=O)C(=O)N[C@@H](CC(C)C)C(=O)N[C@@H](CCSC)C(=O)N[C@@H](Cc1c[nH]cn1)C(=O)N[C@@H](CC(N)=O)C(=O)N[C@@H](Cc1ccccc1)C(=O)NCC(=O)N[C@@H](CCCCN)C(=O)N[C@@H](Cc1c[nH]cn1)C(=O)N[C@@H](CC(C)C)C(=O)N[C@@H](CC(N)=O)C(=O)N[C@@H](CO)C(=O)N[C@@H](CCSC)C(=O)N[C@@H](CCC(=O)O)C(=O)N[C@@H](CCCNC(=N)N)C(=O)N[C@H](C(=O)N[C@@H](CCC(=O)O)C(=O)N[C@@H](Cc1c[nH]c2ccccc12)C(=O)N[C@@H](CC(C)C)C(=O)N[C@@H](CCCNC(=N)N)C(=O)N[C@@H](CCCCN)C(=O)N[C@@H](CCCCN)C(=O)N[C@@H](CC(C)C)C(=O)N[C@@H](CCC(N)=O)C(=O)N[C@@H](CC(=O)O)C(=O)N[C@H](C(=O)N[C@@H](Cc1c[nH]cn1)C(=O)N[C@@H](CC(N)=O)C(=O)N[C@@H](Cc1ccccc1)C(=O)O)C(C)C)C(C)C [[Phe^11] hPTH (1-34), (Phe^11)hPTH(1-34)] | 1.1
